Key:
Type in all cases: in vivo
[1] = Pharmacokinetic study in mice, oral (brain and blood levels by LC/MS/MS); settings: male, mouse, C57BL/6 mice, oral 10 mg/kg, brain
Aβ plaques = test: Immunohistochemistry of Aβ plaques (4G8 antibody), 5×FAD mice
Method: Male 5×FAD mice were purchased from Jackson laboratories (Stock number 006554) and maintained at 23±2° C. temperature, 60±15% relative humidity with free access to food and water ad libitum. 5×FAD male mice were inbred with wild-type (WT, C57/BL6) female mice to produce heterozygous offspring. Offspring were genotyped to select 5×FAD (APP KM670/671NL (Swedish), APP I716V (Florida), APP V717I (London), PSEN1 M146L (A>C), PSEN1 L286V) gene mutations mice. Two months old WT and 5×FAD mice (male and female, n=10-14 per group) were treated daily with vehicle (1% sodium carbonyl methylcellulose [CMC-Na; Sigma-Aldrich, C5678]), curcumin analogue C1 (5 mg/kg, 10 mg/kg) or curcumin (50 mg/kg; Sigma-Aldrich, 08511) suspended in 1% CMC-Na by oral gavage for 4 months.
Mice half brains were fixed with 4% paraformaldehyde in PBS overnight and dehydrated in 30% sucrose in PBS for at least 24 h. Brain sections (30 μm) were cut on a microtome and stored at 4° C. in PBS+0.1% sodium azide. Sections were permeabilized for 10 min with cold PBS containing 0.5% Triton X-100 and blocked with 3% bovine serum albumin for 1 h at room temperature. The sections were incubated with biotinylated 4G8 antibody (800701, Biolegend) overnight, and then incubated with Avidin-Biotin enzyme complex (Vecstatin-ELITE ABC-HRP kit) and Aβ plaques were visualized by DAB peroxidase and quantified using ImageJ software.

5×FAD mice = test: Long-term potentiation (TBS, MED64 multi-electrode array) in hippocampal slices of treated mice; settings: female 5×FAD mice, 10 mg/kg oral 3 months, P<0.001
Method: Heterozygous male 5×FAD mice purchased from Jackson laboratory (#006554) were maintained HKBU animal house at 23±2 OC and 60-15% relative humidity with free access to feed and water ad libitum. Male 5×FAD mice were bred with female wild-type C57BL/6. The produced heterozygous litters were maintained until their age 2 months. At 2 months age tail sample is collected in Non-ionic detergent buffer (50 mM KCL, 10 mM Tris-HCL, 2.5 mM mgCl2, 0.1 mg/ml Gelatin, 0.45% v/v NP-40, 0.45% v/v Tween 20 and 100 μgm/ml Proteinase K). Tail samples were incubated in 55° C. for overnight and denatured at 95° C. for 5 mins. Denatured samples were centrifuged, and supernatant is used for genotyping. Mice tail samples were genotyped using standard PCR protocol by using GoTaq G2 Green Master Mix (M7822), for APP, Forward 5′-[…]-3′ (SEQ ID NO: 81) and reverse, 5′-CGGGGGTCTAGTTCTGCAT-3′ (SEQ ID NO: 82). […]
Brain slice preparation: Wild type and 5× mice treated with or without C1 were cervical dislocated and rapidly brain was removed and placed in oxygenated ice-cold sucrose buffer (213 mM sucrose, 10 mM D-glucose, 2.5 mM KCL, 1.25 mM KH2PO4, 2.5 mM CaCl2, 10 mM MgSO4.7H2O, 75 mM NaCl and […] NaHCO3). […] Slope of each Excitatory Post Synaptic Potential […] (fEPSP) is calculated by using MED64-Quad II system and Mobius MED 64 software.

Tmax [1]: 30 min
Cmax ([1]; read-out: maximum concentration (Cmax) in the brain): 1310 ± 89 ng/g
Structure (SMILES): COc1ccccc1/C=C/C(=O)/C=C/c1ccccc1OC [Compound C1, 1,5-bis(2-methoxyphenyl)penta-1,4-dien-3-one]
Aβ plaque load in cortico-hippocampal sections (Aβ plaques; high dosage 10 mg/kg oral 4 months): significant reduction
Aβ plaque load in cortico-hippocampal sections (Aβ plaques; low dosage 5 mg/kg oral 4 months): significant reduction
synaptic plasticity (long-term potentiation induced by TBS, fEPSP slope) vs vehicle (5×FAD mice): significantly restored
